Measurements taken from US7416741B2, “Copper lowering treatment of inflammatory and fibrotic diseases” (The Regents of the University of Michigan, priority 2002, dated 2008).

Key:
IL-1β = assay: Plasma IL-1β in Con A treated mice; assay type: in vivo, mouse; settings: Ex 5 Exp 3; p=0.15
Description: In a third experiment, two Con A injections one week apart were given to 10 mice. Five of the mice had begun TM treatment 5 days prior to the first injection. All the mice were sacrificed 2 hrs after the last Con A injection.

[1] = tested on: animal model of renal fibrosis; assay: Streptozotocin rat model of renal fibrosis; assay type: in vivo; settings: Ex 7
Experimental: A study is carried out in an animal model of renal fibrosis. After kidney injury of almost any type, a diffuse interstitial fibrosis (believed to be due to over-activity of the TGFβ pathway) produces kidney failure. Rats are made diabetic by administering streptozotocin; renal fibrosis is typically well developed by 60 days after initiation of streptozotocin administration. TM therapy is initiated at varying times relative to streptozotocin administration in several groups of rats, and the results compared to control groups not receiving TM. Typically, at least three […] are present in each experimental group. In one group, TM therapy is initiated prior to streptozotocin administration, to determine whether TM therapy mitigates the pancreatic damage, as it mitigates hepatitis/cirrhosis in the concanavilin A mouse model described above. In other groups, TM is started after streptozotocin administration, at various times, to determine if it can mitigate the renal fibrosis that develops after streptozotocin administration.

Aβ40 and Aβ42 = Aβ40 and Aβ42 ELISA in brain homogenates of Tg2576 mice; assay type: in vivo; settings: Ex 8, TM 0.7 mg/mouse daily from 9 to 15 months of age
Experimental: A study is carried out in an mouse model of Alzheimer's disease. The mouse model is the Tg2576 mouse model, as described above in the Description of the Invention and in further detail in Gau et al., 2002 (J Gau et al., Amer. J. Pathology, 160(2):731-738 [2002]; J Q Trojanowski, Amer. J. Pathology, 160(2):409-411 [2002]). These mice begin developing amyloid plaques at about 9 months of age and plaques are well developed by 15 months. The transgenic mice also develop progressive age-dependent cognitive and behavioral abnormalities described in the background.
Forty female Tg2576 mice, aged 3 months, are purchased from Tagonic Inc, and grown until 9 months of age, at which time they are divided into two groups of 20. One group begins treatment with TM at 9 months of age, and are treated until sacrifice at age 15 months. […] Cp is determined by an oxidase method. […] The weight of the mice is determined weekly. […]
After 6 months of treatment with water or TM, all mice in both groups are sacrificed painlessly, and the brains removed and divided sagitally. […] Analysis of amyloid plaque load in mouse brains is determined by light-microscopic semi-quantitative analysis of brain sections. Subtle effects of treatment are measured by a more rigorous quantitative analysis of amyloid plaques in brain sections to detect a significant difference. […]

With [SH-].[SH-].[S]=[Mo]=[S] [TM, tetrathiomolybdate] the “plasma levels of IL-1β” value (IL-1β) was “close to being significantly lower”, the renal fibrosis ([1]; TM after diabetes is induced) was “mitigates the renal fibrosis” and the pancreatic damage ([1]; TM before streptozotocin) was “mitigates pancreatic damage”. The “mean reduction in Aβ40 and Aβ42 levels in brain homogenates” value (Aβ40 and Aβ42) was “up to 50%”.
